4 molecules from patent US8541395B2 (priority 2009, dated 2013) can be followed below.

Structures are written as SMILES.

One assay deals with T1, KvLQT/minK (Homo sapiens, UniProt P51787).
T1 construct: expressed in transfected cells
Kind of assay: Patch clamp assay, ion channel inhibition. The settings on record: 30 μM; n=2. It is filed as cell-based. In general terms: In patch-clamp work, channel activity is measured electrically.

Another assay concerns the target T2, Kv4.3 (Homo sapiens, UniProt Q9UK17).
T2 sequence (Q9UK17 1-655): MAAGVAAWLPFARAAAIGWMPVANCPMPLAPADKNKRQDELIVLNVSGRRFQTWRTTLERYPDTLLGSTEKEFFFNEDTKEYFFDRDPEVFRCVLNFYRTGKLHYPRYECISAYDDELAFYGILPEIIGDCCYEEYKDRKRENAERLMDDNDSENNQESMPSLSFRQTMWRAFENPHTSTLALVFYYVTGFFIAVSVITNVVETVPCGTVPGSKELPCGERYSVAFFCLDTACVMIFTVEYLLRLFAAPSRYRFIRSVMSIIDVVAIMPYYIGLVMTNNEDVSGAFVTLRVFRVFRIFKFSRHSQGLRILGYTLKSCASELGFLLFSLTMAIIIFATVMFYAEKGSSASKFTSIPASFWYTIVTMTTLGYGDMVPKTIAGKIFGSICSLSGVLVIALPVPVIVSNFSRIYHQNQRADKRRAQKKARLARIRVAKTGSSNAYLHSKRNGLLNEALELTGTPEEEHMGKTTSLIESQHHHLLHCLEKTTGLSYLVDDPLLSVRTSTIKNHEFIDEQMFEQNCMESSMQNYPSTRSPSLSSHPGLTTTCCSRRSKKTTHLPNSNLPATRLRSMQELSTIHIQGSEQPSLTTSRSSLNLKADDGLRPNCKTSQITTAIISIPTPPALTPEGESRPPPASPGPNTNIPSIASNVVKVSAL
Kind of assay: Patch clamp assay, ion channel inhibition. The settings on record: read-out: Mean % inhibition (positive control).

The next assay deals with Cav3.2 (Homo sapiens, UniProt O95180). Type of assay: cell-based. To be noted: 100 μM; n=2.
A further assay concerns the target T3, HCN4 (Homo sapiens, UniProt Q9Y3Q4).
T3 sequence (Q9Y3Q4 1-1203): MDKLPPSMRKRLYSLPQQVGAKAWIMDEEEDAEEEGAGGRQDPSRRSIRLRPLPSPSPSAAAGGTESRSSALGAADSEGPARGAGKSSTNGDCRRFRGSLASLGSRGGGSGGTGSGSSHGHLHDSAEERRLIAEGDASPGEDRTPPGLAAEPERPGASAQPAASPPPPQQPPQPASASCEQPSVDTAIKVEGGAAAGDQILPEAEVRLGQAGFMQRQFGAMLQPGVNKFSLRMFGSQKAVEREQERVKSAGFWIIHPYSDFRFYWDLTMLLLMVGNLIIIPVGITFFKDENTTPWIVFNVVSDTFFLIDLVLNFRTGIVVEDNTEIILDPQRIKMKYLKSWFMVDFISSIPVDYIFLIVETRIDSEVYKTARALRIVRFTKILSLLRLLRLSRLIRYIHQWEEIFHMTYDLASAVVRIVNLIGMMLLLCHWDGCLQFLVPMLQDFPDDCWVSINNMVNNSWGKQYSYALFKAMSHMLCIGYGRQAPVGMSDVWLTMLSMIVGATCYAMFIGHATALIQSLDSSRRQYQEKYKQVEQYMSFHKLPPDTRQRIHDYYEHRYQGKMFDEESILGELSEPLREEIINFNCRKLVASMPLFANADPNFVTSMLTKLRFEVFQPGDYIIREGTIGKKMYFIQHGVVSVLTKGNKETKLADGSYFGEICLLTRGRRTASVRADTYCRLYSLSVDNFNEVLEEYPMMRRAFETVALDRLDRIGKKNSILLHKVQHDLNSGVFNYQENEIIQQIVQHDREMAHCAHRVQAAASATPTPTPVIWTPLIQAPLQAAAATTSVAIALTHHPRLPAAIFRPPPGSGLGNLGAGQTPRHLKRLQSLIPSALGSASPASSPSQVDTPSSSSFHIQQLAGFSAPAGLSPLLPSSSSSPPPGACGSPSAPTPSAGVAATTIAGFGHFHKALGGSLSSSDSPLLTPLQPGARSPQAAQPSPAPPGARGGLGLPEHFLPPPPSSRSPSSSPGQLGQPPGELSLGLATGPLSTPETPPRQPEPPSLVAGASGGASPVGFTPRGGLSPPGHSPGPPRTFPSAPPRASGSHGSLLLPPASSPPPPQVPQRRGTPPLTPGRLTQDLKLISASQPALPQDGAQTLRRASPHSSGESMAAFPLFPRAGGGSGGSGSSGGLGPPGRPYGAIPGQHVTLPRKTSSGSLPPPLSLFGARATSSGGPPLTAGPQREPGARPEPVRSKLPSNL
In words: Patch clamp assay, ion channel inhibition. To be noted: read-out: Mean % inhibition (positive control).

The target in a further assay is T4, HCN2 (Homo sapiens, UniProt Q9UL51).
T4 sequence (Q9UL51 1-889): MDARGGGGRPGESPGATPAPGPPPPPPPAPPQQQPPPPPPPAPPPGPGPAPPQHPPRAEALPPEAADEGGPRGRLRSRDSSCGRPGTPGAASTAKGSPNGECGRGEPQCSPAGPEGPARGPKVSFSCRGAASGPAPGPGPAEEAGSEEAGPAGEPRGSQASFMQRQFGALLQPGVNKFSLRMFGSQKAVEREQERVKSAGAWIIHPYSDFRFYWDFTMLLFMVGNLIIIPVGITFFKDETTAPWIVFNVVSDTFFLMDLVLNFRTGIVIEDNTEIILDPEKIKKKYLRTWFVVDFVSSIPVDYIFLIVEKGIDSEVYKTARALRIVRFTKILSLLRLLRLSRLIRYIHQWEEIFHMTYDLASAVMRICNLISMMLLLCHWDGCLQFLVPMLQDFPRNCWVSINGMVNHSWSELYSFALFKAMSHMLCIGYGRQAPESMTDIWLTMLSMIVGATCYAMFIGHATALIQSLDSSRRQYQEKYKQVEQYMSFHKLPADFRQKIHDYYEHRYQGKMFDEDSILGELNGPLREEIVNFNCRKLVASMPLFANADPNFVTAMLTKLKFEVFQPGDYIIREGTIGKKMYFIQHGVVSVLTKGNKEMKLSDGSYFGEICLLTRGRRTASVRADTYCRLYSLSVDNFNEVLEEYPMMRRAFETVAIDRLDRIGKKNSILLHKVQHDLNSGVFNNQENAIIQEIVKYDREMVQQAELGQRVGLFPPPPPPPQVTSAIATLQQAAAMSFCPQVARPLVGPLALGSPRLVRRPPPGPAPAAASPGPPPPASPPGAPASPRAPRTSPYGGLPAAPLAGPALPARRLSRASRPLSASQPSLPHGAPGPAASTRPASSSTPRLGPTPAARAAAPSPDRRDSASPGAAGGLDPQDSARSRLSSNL
Kind of assay: Patch clamp assay, ion channel inhibition. The settings on record: read-out: Mean % inhibition (positive control).

T1 sequence (P51787 whole entry): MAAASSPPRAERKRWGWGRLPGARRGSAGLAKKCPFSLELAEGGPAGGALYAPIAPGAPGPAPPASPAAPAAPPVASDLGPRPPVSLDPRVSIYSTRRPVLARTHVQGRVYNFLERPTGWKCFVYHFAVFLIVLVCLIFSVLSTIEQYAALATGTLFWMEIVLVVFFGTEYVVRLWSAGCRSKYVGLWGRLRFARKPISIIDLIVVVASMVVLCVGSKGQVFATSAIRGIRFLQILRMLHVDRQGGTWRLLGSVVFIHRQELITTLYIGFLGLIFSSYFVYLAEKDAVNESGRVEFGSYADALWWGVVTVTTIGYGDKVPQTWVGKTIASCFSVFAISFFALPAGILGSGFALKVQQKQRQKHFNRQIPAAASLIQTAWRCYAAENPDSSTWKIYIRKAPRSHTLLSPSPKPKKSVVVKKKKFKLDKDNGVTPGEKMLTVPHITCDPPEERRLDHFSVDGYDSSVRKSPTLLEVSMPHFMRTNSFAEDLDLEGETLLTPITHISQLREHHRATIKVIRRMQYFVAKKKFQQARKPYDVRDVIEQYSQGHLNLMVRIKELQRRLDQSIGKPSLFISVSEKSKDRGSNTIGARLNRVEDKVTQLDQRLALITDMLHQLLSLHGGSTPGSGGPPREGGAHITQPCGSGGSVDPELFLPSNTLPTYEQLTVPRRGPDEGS
Cav3.2, sequence (O95180 whole entry): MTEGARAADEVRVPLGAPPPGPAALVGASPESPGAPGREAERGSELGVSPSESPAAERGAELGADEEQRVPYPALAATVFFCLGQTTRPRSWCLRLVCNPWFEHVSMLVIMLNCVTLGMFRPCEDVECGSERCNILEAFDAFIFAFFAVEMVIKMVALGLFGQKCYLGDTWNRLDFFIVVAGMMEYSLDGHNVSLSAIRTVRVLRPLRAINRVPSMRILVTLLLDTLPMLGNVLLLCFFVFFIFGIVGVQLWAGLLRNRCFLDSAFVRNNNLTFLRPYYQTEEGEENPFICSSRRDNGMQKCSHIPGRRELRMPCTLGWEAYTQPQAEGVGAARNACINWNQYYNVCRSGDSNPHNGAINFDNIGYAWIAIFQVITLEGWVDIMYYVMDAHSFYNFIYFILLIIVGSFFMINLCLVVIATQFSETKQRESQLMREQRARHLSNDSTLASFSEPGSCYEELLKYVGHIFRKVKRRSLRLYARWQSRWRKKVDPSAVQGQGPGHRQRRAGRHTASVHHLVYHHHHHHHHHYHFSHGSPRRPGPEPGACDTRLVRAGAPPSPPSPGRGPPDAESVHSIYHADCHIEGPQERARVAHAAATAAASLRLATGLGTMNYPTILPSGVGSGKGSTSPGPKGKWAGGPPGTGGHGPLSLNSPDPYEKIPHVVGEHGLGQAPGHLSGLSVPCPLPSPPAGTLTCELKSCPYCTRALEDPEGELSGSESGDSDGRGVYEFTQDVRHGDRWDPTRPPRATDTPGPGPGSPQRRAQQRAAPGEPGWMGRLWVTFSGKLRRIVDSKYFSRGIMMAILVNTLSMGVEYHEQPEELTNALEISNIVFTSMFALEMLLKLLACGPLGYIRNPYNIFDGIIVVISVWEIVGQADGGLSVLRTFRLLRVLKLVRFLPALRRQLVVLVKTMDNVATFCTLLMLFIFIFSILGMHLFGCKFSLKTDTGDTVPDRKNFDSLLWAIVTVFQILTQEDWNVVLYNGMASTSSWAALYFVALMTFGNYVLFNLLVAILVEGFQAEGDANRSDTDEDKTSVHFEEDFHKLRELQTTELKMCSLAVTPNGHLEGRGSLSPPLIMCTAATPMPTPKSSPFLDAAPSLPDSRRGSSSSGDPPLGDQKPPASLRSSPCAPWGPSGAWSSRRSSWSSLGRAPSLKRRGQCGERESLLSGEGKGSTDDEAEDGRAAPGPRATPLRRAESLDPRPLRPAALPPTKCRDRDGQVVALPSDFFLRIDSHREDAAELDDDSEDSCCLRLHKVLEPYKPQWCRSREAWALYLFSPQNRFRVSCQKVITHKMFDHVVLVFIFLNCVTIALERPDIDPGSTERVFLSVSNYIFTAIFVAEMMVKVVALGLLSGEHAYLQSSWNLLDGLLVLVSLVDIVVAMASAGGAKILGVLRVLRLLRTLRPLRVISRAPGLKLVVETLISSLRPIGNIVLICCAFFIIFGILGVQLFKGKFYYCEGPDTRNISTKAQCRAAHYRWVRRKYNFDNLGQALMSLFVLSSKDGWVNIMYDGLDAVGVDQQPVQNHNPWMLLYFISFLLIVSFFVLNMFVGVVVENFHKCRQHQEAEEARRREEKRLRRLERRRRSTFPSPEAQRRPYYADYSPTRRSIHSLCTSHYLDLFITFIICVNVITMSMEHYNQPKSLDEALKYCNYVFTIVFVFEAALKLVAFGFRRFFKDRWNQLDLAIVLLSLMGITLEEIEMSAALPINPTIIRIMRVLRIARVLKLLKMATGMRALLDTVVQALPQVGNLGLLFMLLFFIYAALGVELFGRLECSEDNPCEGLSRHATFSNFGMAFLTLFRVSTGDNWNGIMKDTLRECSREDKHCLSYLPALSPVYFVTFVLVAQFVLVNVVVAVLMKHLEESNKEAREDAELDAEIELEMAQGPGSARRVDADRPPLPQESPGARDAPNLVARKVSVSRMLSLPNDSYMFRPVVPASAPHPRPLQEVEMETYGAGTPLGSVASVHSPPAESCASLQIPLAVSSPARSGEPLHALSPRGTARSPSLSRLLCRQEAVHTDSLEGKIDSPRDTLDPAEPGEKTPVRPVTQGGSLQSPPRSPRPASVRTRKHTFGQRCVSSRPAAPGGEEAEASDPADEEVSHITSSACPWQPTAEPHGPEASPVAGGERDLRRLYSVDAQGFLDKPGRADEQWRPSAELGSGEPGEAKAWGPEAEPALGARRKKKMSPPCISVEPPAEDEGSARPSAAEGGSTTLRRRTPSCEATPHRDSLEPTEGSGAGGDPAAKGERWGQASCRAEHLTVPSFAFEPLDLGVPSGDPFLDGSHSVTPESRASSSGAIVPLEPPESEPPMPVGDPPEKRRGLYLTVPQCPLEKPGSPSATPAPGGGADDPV
Procedure for Cav3.2: (§1) The studies were conducted according to the conventional procedures.
(§2) The exposure duration of each channel was 5 minutes. […] Any left current after exposure to this dose was digitally subtracted to eliminate the contribution of any endogenous current.
Procedure for HCN2: as §1, §2
Procedure for HCN4: as §1, §2
Procedure for Kv4.3: as §1, §2
Procedure for KvLQT/minK: as §1, §2

For `CCS(=O)(=O)N(C)[C@H]1c2cc(C#N)ccc2OC(C)(C)[C@@H]1O` [Chromanol-293B], the “Mean % inhibition (positive control)” value at KvLQT/minK turned out to be 87.8%.

In general, inhibition refers to the drop in the measured response relative to a control, in per cent. In the case of `O=C(NCC1CCCCN1)c1cc(OCC(F)(F)F)ccc1OCC(F)(F)F` (centres unmarked) [Flecainide], at Kv4.3, the inhibition at 100 µM worked out at 96.1%.

For `[Ni]` [Nickel], the “Mean % inhibition (positive control)” value at Cav3.2 was 76.6%.

As for `COc1ccc(CCN(C)CCCN2CCc3cc(OC)c(OC)cc3CC2=O)cc1OC` [Zatebradine], the inhibition at 10 µM on HCN4 is 88.3%. The inhibition at 100 µM at HCN2 turned out to be 96.1%.
